Entries after “also recorded” stand apart in the source; their conditions may differ.
Columns and labels:
[1] = tested on: PC3-AR9 cells; experiment: Boyden chamber Matrigel invasion assay of PC3-AR9 cells; format: cell-based, human; conditions: Matrigel coated Boyden chambers
Experimental: The invasion assays used Boyden chambers (Becton Dickinson) with […] inserts and 8 μm pores. Matrigel Matrix ([…] surface area) was placed in medium (1:5 dilution) on the inner layer of the invasion chamber and incubated at 37° C. for 30 min before adding the cells.

[2] = tested on: MMP-9; experiment: MMP-9 enzyme (gelatinase) / zymography assay in PC3-AR9 cells; format: cell-based, human; conditions: for gelatinase activity of MMP-9: PC3-AR9 cells

`C[C@]12CCC(=O)C[C@@H]1CC[C@@H]1[C@@H]2CC[C@]2(C)[C@@H](O)CC[C@@H]12` [DHT, dihydrotestosterone] was tested, and the “invasion of PC3-AR9” value ([1]; in the presence of DHT, compared to PC3-v) was “decreased” and the “gelatinase activity of MMP-9” value ([2]; 1 nM DHT) was “suppress”.
In the case of `CC(C)(O)C(=O)Nc1ccc([N+](=O)[O-])c(C(F)(F)F)c1` [HF], the “invasion of PC3-AR9” value ([1]; addition of HF to DHT) is reported as “increased” and the “gelatinase activity of MMP-9” value ([2]; 1 μM HF added to 1 nM DHT) is reported as “restore”.
In the case of `CCCCCCCCCCCCCC(=O)O[C@@H]1[C@@H](C)[C@@]2(O)[C@@H](C=C(CO)C[C@]3(O)C(=O)C(C)=C[C@@H]23)[C@@H]2C(C)(C)[C@]12OC(C)=O` [TPA], the “activity of MMP-9 (zymography)” value ([2]; 10 nM TPA) is reported as “increased; also recorded: enhanced”.
